What all share (test): Thermal stability shift assay
Common to all, as to type: binding

The target in assay [1] is PKACa (Homo sapiens, UniProt P17612). To be noted: read-out: Tm shift PKACa. The method in brief: (§1)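 Thermal denaturation is measured by SyproOrange fluorescence in a real-time PCR machine. Each sample holds 2 μM protein and 10 μM compound in 10 mM HEPES pH 7.5 with 500 mM NaCl.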
Assay [2] addresses AAK1 (Homo sapiens, UniProt Q2M2I8). The conditions noted are these: read-out: Tm shift AAK1. Summed up:
as §1

Assay [3] has as its target T1, OSR1 (Homo sapiens, UniProt O95747).
T1 construct: purchased in-house (SGC Oxford thermal shift panel)
To be noted: read-out: Tm shift OSR1. The method in brief:
as §1

The target in assay [4] is T2, LYN (Homo sapiens, UniProt P07948).
T2 construct: purchased in-house (SGC Oxford thermal shift panel)
To be noted: read-out: Tm shift LYN. Summed up: as §1

In assay [5] the target is T3, eEF2K (Homo sapiens, UniProt O00418).
T3 construct: purchased in-house (SGC Oxford thermal shift panel)
T3 sequence (O00418 1-725): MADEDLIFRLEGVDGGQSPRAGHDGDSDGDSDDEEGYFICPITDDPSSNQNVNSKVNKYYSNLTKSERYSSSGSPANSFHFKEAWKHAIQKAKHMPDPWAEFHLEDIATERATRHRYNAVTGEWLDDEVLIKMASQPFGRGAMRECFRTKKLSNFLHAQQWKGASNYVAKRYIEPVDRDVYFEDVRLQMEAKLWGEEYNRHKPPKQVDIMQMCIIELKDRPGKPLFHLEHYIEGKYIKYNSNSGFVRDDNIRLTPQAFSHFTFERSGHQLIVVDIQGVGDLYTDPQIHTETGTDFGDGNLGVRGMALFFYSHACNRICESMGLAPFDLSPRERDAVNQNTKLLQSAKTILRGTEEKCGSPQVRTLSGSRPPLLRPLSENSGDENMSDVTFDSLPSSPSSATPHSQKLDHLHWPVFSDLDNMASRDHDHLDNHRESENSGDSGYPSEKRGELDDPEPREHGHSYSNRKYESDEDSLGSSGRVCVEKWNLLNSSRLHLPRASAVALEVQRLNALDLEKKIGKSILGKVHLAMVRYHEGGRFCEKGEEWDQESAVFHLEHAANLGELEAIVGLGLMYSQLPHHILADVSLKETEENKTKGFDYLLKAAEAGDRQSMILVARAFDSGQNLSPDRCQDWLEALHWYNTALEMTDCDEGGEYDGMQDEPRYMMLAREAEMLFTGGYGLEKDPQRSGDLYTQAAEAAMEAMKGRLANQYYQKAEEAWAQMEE
The conditions noted are these: read-out: Tm shift eEF2K. Summed up:
as §1

Assay [6] concerns the target CK2a1 (Homo sapiens, UniProt P68400). To be noted: read-out: Tm shift CK2a1. Summed up: as §1
The target in assay [7] is T4, BARK2 (Homo sapiens, UniProt P35626).
T4 sequence (P35626 1-688): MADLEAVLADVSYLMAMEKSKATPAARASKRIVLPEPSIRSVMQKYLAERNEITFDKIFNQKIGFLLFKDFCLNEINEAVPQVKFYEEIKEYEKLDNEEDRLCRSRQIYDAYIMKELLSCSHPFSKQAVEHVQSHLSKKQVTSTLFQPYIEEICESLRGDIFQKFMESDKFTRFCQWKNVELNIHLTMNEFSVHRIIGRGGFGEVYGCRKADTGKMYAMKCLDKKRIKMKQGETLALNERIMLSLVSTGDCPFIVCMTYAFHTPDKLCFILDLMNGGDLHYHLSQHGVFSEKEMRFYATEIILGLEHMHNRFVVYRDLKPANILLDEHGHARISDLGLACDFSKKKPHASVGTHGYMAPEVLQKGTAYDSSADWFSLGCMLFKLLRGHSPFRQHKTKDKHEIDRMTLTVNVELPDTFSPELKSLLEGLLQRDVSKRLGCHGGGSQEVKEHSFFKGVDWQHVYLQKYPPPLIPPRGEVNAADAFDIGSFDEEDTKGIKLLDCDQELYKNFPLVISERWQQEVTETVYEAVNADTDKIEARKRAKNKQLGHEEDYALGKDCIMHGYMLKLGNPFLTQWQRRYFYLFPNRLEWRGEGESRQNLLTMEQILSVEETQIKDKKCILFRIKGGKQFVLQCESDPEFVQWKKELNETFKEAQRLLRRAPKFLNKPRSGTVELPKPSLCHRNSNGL
The conditions noted are these: read-out: Tm shift BARK2. Summed up:
as §1

Assay [8] concerns the target CDKL1 (Homo sapiens, UniProt Q00532). The conditions noted are these: read-out: Tm shift CDKL1. The method in brief:
as §1

Assay [9] concerns the target RSK4 (Homo sapiens, UniProt Q9UK32). The conditions noted are these: read-out: Tm shift RSK4. Summed up:
as §1

For assay [10], the target named is T5, MST4 (Homo sapiens, UniProt Q9P289).
T5 construct: purchased in-house (SGC Oxford thermal shift panel)
The conditions noted are these: read-out: Tm shift MST4. Summed up:
as §1

Like-named read-outs stand apart in the source and are kept apart here.

For five compounds, ΔTm results are on record in publication PMC3145970, “Specific CLK Inhibitors from a Novel Chemotype for Regulation of Alternative Splicing” (Chemistry & Biology, 2011).

T5 sequence (Q9P289 whole entry): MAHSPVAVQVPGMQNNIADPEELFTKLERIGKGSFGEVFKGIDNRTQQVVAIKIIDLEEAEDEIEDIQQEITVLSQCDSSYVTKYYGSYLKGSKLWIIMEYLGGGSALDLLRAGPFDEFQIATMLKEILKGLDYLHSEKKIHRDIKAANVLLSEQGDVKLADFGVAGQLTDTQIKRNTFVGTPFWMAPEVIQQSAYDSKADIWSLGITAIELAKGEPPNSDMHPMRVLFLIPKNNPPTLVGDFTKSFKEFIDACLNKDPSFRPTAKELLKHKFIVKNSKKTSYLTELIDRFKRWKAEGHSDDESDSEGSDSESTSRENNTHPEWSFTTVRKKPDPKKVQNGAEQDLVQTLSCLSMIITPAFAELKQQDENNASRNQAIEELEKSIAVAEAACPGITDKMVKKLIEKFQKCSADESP
Sequence of CDKL1 (Q00532 whole entry): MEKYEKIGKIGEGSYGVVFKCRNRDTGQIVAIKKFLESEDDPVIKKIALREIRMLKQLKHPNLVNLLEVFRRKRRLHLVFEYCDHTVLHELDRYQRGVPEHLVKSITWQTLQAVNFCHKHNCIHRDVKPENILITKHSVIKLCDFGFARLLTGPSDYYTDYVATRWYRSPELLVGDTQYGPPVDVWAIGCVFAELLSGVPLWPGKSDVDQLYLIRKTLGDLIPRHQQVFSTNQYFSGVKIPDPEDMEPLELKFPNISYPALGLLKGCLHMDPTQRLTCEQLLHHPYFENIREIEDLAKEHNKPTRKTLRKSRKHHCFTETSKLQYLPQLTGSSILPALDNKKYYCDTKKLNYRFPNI
Sequence of AAK1 (Q2M2I8 whole entry): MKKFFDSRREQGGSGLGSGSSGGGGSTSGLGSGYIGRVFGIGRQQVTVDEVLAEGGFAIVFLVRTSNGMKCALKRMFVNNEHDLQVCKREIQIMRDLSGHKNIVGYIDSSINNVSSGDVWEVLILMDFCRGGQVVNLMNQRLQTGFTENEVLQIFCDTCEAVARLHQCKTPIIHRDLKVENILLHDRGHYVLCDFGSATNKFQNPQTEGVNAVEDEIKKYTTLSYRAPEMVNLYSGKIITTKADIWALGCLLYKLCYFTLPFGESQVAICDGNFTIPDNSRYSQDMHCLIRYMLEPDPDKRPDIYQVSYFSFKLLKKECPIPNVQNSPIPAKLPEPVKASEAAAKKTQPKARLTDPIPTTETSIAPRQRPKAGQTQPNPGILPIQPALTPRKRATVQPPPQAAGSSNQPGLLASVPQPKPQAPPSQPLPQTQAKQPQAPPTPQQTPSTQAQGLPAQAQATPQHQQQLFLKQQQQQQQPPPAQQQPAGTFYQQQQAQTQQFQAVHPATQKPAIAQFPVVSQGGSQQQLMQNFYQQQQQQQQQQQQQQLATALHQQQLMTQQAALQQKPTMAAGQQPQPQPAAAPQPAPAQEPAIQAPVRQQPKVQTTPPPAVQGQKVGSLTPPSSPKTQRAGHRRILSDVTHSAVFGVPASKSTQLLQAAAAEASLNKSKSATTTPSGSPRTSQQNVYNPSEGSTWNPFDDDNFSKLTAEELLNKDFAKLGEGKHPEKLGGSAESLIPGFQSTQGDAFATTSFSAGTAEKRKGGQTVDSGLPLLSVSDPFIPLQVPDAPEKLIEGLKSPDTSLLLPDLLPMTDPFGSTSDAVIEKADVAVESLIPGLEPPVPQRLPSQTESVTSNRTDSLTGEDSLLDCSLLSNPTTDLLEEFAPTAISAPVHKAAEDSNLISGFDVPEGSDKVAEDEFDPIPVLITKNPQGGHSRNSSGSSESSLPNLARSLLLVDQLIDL
T2 sequence (P07948 whole entry): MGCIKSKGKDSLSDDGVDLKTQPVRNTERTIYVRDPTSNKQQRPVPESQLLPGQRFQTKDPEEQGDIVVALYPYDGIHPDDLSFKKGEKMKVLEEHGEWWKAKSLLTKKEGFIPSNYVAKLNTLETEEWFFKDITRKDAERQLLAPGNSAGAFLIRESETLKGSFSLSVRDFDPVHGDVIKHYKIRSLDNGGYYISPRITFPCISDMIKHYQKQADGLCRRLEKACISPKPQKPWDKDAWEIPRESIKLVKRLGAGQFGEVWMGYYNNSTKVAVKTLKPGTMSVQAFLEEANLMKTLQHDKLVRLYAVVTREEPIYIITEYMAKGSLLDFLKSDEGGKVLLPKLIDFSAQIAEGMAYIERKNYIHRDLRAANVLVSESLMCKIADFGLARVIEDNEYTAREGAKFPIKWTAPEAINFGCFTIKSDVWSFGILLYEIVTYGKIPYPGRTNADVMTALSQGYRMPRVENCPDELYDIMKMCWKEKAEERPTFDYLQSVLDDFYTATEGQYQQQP
T1 sequence (O95747 whole entry): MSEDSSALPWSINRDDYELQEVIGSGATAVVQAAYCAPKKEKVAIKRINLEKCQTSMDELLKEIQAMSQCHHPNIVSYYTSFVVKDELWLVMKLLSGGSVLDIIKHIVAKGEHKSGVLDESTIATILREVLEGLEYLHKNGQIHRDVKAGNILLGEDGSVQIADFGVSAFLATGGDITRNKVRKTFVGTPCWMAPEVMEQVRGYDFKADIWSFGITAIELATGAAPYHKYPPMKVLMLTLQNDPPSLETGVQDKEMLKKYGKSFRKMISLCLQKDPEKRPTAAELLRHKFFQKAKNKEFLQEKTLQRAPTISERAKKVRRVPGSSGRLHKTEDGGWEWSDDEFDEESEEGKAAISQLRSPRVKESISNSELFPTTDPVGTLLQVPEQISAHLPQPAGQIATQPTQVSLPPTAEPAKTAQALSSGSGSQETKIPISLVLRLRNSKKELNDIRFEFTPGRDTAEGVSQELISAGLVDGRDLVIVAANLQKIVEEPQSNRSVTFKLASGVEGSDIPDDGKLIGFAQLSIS
Sequence of CK2a1 (P68400 whole entry): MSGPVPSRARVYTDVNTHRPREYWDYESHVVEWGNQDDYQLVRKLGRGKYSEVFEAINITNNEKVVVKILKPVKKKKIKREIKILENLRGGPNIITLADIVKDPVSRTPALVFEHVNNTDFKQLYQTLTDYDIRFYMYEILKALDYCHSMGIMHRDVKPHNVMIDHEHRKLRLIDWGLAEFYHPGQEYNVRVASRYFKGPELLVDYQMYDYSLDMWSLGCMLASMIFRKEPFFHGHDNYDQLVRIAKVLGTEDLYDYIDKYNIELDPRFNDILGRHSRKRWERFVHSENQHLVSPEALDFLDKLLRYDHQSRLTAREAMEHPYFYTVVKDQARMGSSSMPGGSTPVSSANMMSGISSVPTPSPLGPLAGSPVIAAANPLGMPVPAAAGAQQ
Sequence of RSK4 (Q9UK32 whole entry): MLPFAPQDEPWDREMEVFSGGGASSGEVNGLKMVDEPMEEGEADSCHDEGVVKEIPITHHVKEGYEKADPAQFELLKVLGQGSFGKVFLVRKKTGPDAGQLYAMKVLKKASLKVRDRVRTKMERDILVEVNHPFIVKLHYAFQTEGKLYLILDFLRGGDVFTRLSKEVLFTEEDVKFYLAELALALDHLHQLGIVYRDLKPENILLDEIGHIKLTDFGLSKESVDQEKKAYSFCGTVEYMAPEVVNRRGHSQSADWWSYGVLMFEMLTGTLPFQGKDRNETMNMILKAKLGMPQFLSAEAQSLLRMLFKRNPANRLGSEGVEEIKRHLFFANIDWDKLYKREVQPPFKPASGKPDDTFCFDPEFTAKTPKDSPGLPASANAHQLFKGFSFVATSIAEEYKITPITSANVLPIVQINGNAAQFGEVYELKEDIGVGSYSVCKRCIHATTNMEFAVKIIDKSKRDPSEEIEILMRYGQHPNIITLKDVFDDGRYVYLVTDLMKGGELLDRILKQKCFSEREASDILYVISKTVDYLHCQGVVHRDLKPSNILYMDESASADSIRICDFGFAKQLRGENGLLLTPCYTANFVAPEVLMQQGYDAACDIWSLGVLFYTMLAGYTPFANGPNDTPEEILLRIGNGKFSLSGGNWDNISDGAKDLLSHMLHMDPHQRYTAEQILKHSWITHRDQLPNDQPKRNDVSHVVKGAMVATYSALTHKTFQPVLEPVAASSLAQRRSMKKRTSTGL

With `CCOC(=O)c1c(/C(C#N)=C\N)c2ccc(Cl)c(Cl)c2n1C` [KH-CB19, (E)-Ethyl 3-(2-Amino-1-Cyanovinyl)-6,7-Dichloro-1-Methyl-1H-Indole-2-Carboxylate], the ΔTm at 10 µM in [1] is 0 °C; in [2], 1.3 °C; in [3] it was 0.3 °C; in [4] it was 0.2 °C; in [5], -0.1 °C; in assay [6], 1.3 °C. Further, the ΔTm at 10 µM in assay [7] was -0.4 °C; in assay [8], 0 °C; in [9] it was 1.6 °C; in [10], 2.4 °C.
`NC1=NC(=O)/C(=C2\CCNC(=O)c3[nH]c(Br)cc32)N1` [Hymenialdisine, hymenialdisine, reference compound]: the ΔTm at 10 µM in assay [1] (inhibitor 10 μM) is 0.8 °C; in assay [2] (inhibitor 10 μM), 2.7 °C; in assay [3] (inhibitor 10 μM), 0.5 °C; in assay [4] (inhibitor 10 μM) it was 0.3 °C; in [5] (inhibitor 10 μM) it was -0.1 °C; in assay [6] (inhibitor 10 μM), 0.8 °C. Also, the ΔTm at 10 µM in assay [7] (inhibitor 10 μM) was -0.3 °C; in assay [8] (inhibitor 10 μM) it was 0.6 °C; in assay [9] (inhibitor 10 μM), 1.7 °C; in [10] (inhibitor 10 μM) it was 4.6 °C.
As for `CCOC(=O)c1c(C(C#N)=CN(C)C)c2ccc(Cl)c(Cl)c2n1C` (mixture of isomers) [compound 2, (E/Z)-Ethyl 6,7-Dichloro-3-[1-Cyano-2-(Dimethylamino)Vinyl]-1-Methyl-1H-Indole-2-Carboxylate], the ΔTm at 10 µM in assay [1] (inhibitor 10 μM) was 0.2 °C; in assay [2] (inhibitor 10 μM) it was 0.3 °C; in [3] (inhibitor 10 μM), 0 °C; in assay [4] (inhibitor 10 μM), 0 °C; in [5] (inhibitor 10 μM), -0.4 °C; in assay [6] (inhibitor 10 μM) it was 1.4 °C. The ΔTm at 10 µM in [7] (inhibitor 10 μM) was 0.2 °C; in assay [8] (inhibitor 10 μM) it was 0.6 °C; in assay [9] (inhibitor 10 μM), -0.2 °C; in assay [10] (inhibitor 10 μM), -0.6 °C.
On to `CCOC(=O)c1c(C(C#N)=CN)c2ccc(Cl)c(Cl)c2n1C` (mixture of isomers) [KH-CB20, (E/Z)-Ethyl 3-(2-Amino-1-Cyanovinyl)-6,7-Dichloro-1-Methyl-1H-Indole-2-Carboxylate], for which the ΔTm at 10 µM in assay [1] was 0.3 °C; in assay [2] it was 1.3 °C; in assay [3], 0.3 °C; in assay [4] it was 0 °C; in [5] it was -0.1 °C; in assay [6] it was 1.1 °C. The ΔTm at 10 µM in [7] was -0.1 °C; in assay [8], 0.2 °C; in [9] it was 1.1 °C; in assay [10], 0.1 °C.
As to `Cn1c2c(Cl)c(Cl)ccc2c2c(C#N)c[nH]c(=O)c21` [compound 3, 7,8-Dichloro-9-Methyl-1-Oxo-2,9-Dihydro-1H-Pyrido[3,4-b]Indole-4-Carbonitrile], the ΔTm at 10 µM was determined as 0.4 °C in [1] (inhibitor 10 μM); 1.4 °C in [2] (inhibitor 10 μM); 0.3 °C in assay [3] (inhibitor 10 μM); 0.2 °C in assay [4] (inhibitor 10 μM); 0.3 °C in assay [5] (inhibitor 10 μM); 1.3 °C in assay [6] (inhibitor 10 μM). Further, the ΔTm at 10 µM in assay [7] (inhibitor 10 μM) came to 0.3 °C; in [8] (inhibitor 10 μM), 0.2 °C; in [9] (inhibitor 10 μM), 1.3 °C; in assay [10] (inhibitor 10 μM), 0.4 °C.
